From ChEMBL document CHEMBL1137476, “Synthesis of the A,B-ring-truncated OSW saponin analogs and their antitumor activities” (Bioorg Med Chem Lett, 2007) come the findings set out here.

In one test the test system is Jurkat. Kind of test: Antitumor activity against Jurkat cells. Format: functional, cell-based. The settings on record: Homo sapiens.
The subject of a further test is HeLa. Kind of test: Antitumor activity against HeLa cells. In kind it is functional, cell-based. The settings on record: Homo sapiens.

Regarding `COc1ccc(C(=O)O[C@H]2[C@H](O[C@H]3[C@H](OC(C)=O)[C@@H](O[C@H]4C[C@H]5C[C@@H](O)CC[C@]5(C)[C@@]4(O)[C@H](C)C(=O)OCC(C)C)OC[C@H]3O)OC[C@@H](O)[C@@H]2O)cc1`, the IC50 (as a rule, the midpoint of a concentration-inhibition curve) was 14.5 µM in the test with Jurkat and 2.6 µM with HeLa.

For `COc1ccc(C(=O)O[C@H]2[C@H](O[C@H]3[C@H](OC(C)=O)[C@@H](O[C@H]4C[C@H]5CCCC[C@]5(C)[C@@]4(O)[C@H](C)C(=O)OCC(C)C)OC[C@H]3O)OC[C@@H](O)[C@@H]2O)cc1`, the IC50 with Jurkat worked out at 8.9 µM; in the test with HeLa, 14.9 µM.

As to `COc1ccc(C(=O)O[C@H]2[C@H](O[C@H]3[C@H](OC(C)=O)[C@@H](O[C@H]4C[C@H]5[C@@H]6CC=C7C[C@@H](O)CC[C@]7(C)[C@H]6CC[C@]5(C)[C@@]4(O)[C@H](C)C(=O)OCC(C)C)OC[C@H]3O)OC[C@@H](O)[C@@H]2O)cc1`, the IC50 is 0.0013 µM in the test on Jurkat and 0.24 µM in the test on HeLa.

Take `COc1ccc(C(=O)O[C@H]2[C@H](O[C@H]3[C@H](OC(C)=O)[C@@H](O[C@H]4C[C@H]5C[C@@H](O)CC[C@]5(C)[C@@]4(O)[C@@H](C)C(=O)OCC(C)C)OC[C@H]3O)OC[C@@H](O)[C@@H]2O)cc1`: the figures for the concentration for half-maximal inhibition (IC50) with Jurkat and in the test on HeLa were 21.1 µM and 0.8 µM, respectively.
